Data published in US6737383B1, “Herbicidal oxadiazolidines” (priority 1999, dated 2004).

Tests used:
sourgrass = assay: Test D sourgrass; format: in vivo, Trichachne insularis; conditions: Preemergence, 0 to 100 scale, 0 no injury, 100 complete control
In short: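 Greenhouse pots, seeds in sandy loam; compounds formulated in non-phytotoxic solvent with surfactant; preemergence treatments went on the soil surface within one day of planting. Injury rated visually 14 to 21 days after application on a 0 (none) to 100 (complete control) scale.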

velvetleaf = assay: Test A velvetleaf; format: in vivo, Abutilon theophrasti; conditions: 0 to 10 scale where 0 is no effect and 10 is complete control
Protocol: Seeds of barnyardgrass (Echinochloa crus-galli), crabgrass (Digitaria spp.), morningglory (Ipomoea spp.), and velvetleaf (Abutilon theophrasti) were planted into a sandy loam soil and treated preemergence by soil drench with test chemicals formulated in a non-phytotoxic solvent mixture which includes a surfactant At the same time, these crop and weed species were also treated postemergence sprayed to runoff, with test chemicals formulated in the same manner.
Plants ranged in height from two to eighteen cm and were in the one to two leaf stage for the postemergence treatment. Treated plants and untreated controls were maintained in a greenhouse for approximately eleven days, after which all treated plants were compared to untreated controls and visually evaluated for injury. Plant response ratings, summarized in Table A, are based on a 0 to 10 scale where 0 is no effect and 10 is complete control.

chickweed = assay: Test E chickweed; format: in vivo, Stellaria media; conditions: Preemergence
annual bluegrass [1] = assay: Test E annual bluegrass; format: in vivo, Poa annua; conditions: Postemergence
Protocol: (§1) Compounds evaluated in this test were formulated in a non-phytotoxic solvent mixture which included a surfactant and applied to plants that were in the 1- to 4-leaf stage (postemergence application). A mixture of sandy loam soil and greenhouse potting mix in a 60:40 ratio was used for the postemergence test.
(§2) Plantings of these crops and weed species were adjusted to produce plants of appropriate size for the postemergence test. All plant species were grown using normal greenhouse practices. Crop and weed species include annual bluegrass (Poa annua), blackgrass (Alopecurus myosuroides), black nightshade (Solanum nigra), chickweed (Stellaria media), common poppy (Papaver rhoeas), deadnettle (Lamium amplexicaule), downy brome (Bromus tectorum), field violet (Viola arvensis), galium (Galium aparine), green foxtail (Setaria viridis), Italian ryegrass (Lolium multiflorum), jointed goatgrass (Aegilops cylindrica), kochia (Kochia scoparia), lambsquarters (Chenopodium album), littleseed canarygrass (Phalaris minor), rape (Brassica napus), redroot pigweed (Amaranthus retroflexus), Russian thistle (Salsola kali), scentless chamomile (Matricaria inodora), spring barley (Hordeum vulgare), sugar beet (Beta vulgaris), sunflower (Helianthus annuus), ivyleaf speedwell (Veronica hederaefolia), spring wheat (Triticum aestivum), winter wheat (Triticum aestivum), wild buckwheat (Polygonum convolvulus), wild mustard (Sinapis arvensis), wild oat (Avena fatua), windgrass (Apera spica-venti) and winter barley (Hordeum vulgare).
(§3) Treated plants and untreated controls were maintained in a greenhouse for approximately 21 to 28 days, after which all treated plants were compared to untreated controls and visually evaluated. […] A dash response (-) means no test result.

scentless chamomile = assay: Test E scentless chamomile; format: in vivo, Matricaria inodora; conditions: Postemergence
Protocol: as §1, §2, §3

sunflower = assay: Test E sunflower; format: in vivo, Helianthus annuus; conditions: Postemergence
In short: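 Postemergence: spray at 1–4 leaf stage, soil 60:40 sandy loam:potting mix; solvent + surfactant formulation; greenhouse 21–28 d; visual injury vs untreated controls.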

annual bluegrass [2] = assay: Test E annual bluegrass; format: in vivo, Poa annua; conditions: Preemergence
field violet = assay: Test E field violet; format: in vivo, Viola arvensis; conditions: Preemergence
littleseed canarygrass = assay: Test E littleseed canarygrass; format: in vivo, Phalaris minor; conditions: Preemergence
arrowleaf sida = assay: Test C postemergence arrowleaf sida; format: in vivo, Sida rhombifolia; conditions: 0 to 100 scale, 0 no effect, 100 complete control
In short: (§4)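 Compounds in a non-phytotoxic solvent with surfactant were sprayed postemergence on greenhouse-grown plants in 60:40 sandy loam/potting mix. After about 14 to 21 days, visual ratings against untreated controls on a 0 (no effect) to 100 (complete control) scale.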

fall panicum = assay: Test C postemergence fall panicum; format: in vivo, Panicum dichotomiflorum; conditions: 0 to 100 scale, 0 no effect, 100 complete control
In short: as §4

johnsongrass = assay: Test C postemergence johnsongrass; format: in vivo, Sorghum halepense; conditions: 0 to 100 scale, 0 no effect, 100 complete control
Protocol: as §1, with “grown for various periods of time before treatment” for “in the 1- to 4-leaf stage”
Plantings of these crops and weed species were adjusted to produce plants of appropriate size for the postemergence test. All plant species were grown using normal greenhouse practices. Crop and weed species include arrowleaf sida (Sida rhombifolia), barnyardgrass (Echinochloa crus-galli), cocklebur (Xanthium strumarium), common ragweed (Ambrosia elatior), corn (Zea mays), cotton (Gossypium hirsutum), eastern black nightshade (Solanum ptycanthum), fall panicum (Panicum dichotomiflorum), field bindweed (Convolvulus arvensis), giant foxtail (Setaria faberii), hairy beggarticks (Bidens pilosa), ivyleaf morningglory (Ipomoea hederacea), johnsongrass (Sorghum halepense), ladysthumb smartweed (Polygonum persicaria), lambsquarters (Chenopodium album), large crabgrass (Digitaria sanguinalis), purple nutsedge (Cyperus rotundus), redroot pigweed (Amaranthus retroflexus), soybean (Glycine max), surinam grass (Brachiaria decumbens), velvetleaf (Abutilon theophrasti) and wild poinsettia (Euphorbia heterophylla).
Treated plants and untreated controls were maintained in a greenhouse for approximately 14, to 21 days, after which all treated plants were compared to untreated controls and visually evaluated. Plant response ratings, summarized in Table C, were based upon a 0 to 100 scale where 0 was no effect and 100 was complete control. A dash response (−) means no test result.

redroot pigweed = assay: Test C postemergence redroot pigweed; format: in vivo, Amaranthus retroflexus; conditions: 0 to 100 scale, 0 no effect, 100 complete control
In short: as §4

[3] = Rate 250 g/ha, 0 to 100 scale (0 no effect, 100 complete control)
[4] = Rate 500 g/ha, 0 to 100 scale, 0 no effect, 100 complete control
[5] = Rate 125 g/ha, 0 to 100 scale (0 no effect, 100 complete control)
[6] = Rate 500 g/ha, 0 to 100 scale where 0 is no effect and 100 is complete control
[7] = Rate 250 g/ha, 0 to 100 scale where 0 is no effect and 100 is complete control

In the case of `Cc1cccc(C)c1-n1c(=O)on(C(=O)N(c2ccc(F)cc2)C(C)C)c1=O` [Compound 18], the “Plant response rating, Sourgrass” value (sourgrass; Rate 64 g/ha) is reported as 100.

In the case of `CCc1cccc(C)c1-n1c(=O)on(C(=O)N(c2ccc(F)cc2)C(C)C)c1=O` [Compound 52], the “Plant response rating, Velvetleaf” value (velvetleaf; Postemergence, Rate 1000 g/ha) is reported as 1 and the “Plant response rating, Velvetleaf” value (velvetleaf; Pre-emergence, Rate 2000 g/ha) is reported as 0.

`Cc1cccc(Cl)c1-n1c(=O)on(C(=O)N(c2ccc(F)cc2)C(C)C)c1=O` [Compound 53] was tested, and the “Plant response rating, Velvetleaf” value (velvetleaf; Postemergence, Rate 1000 g/ha) was 1 and the “Plant response rating, Velvetleaf” value (velvetleaf; Pre-emergence, Rate 2000 g/ha) was 0.

For `C=CCn1c(=O)on(C(=O)N(c2ccc(Cl)cc2)C(C)C)c1=O` [Compound 105], the “Plant response rating, Chickweed” value (chickweed; Rate 250 g/ha, 0 to 100 scale) was 85.

For `CC(C)N(C(=O)n1oc(=O)n(C(C)C)c1=O)c1ccc(Cl)cc1` [Compound 114], the “Plant response rating, Velvetleaf” value (velvetleaf; Postemergence, Rate 1000 g/ha) was 5, the “Plant response rating, Velvetleaf” value (velvetleaf; Pre-emergence, Rate 2000 g/ha) was 6 and the “Plant response rating, Annual bluegras” value (annual bluegrass [1]; Rate 125 g/ha, 0 to 100 scale) was 0. The “Plant response rating, Annual bluegras” value (annual bluegrass [1]; [3]) was 30, the “Plant response rating, Annual bluegras” value (annual bluegrass [1]; [4]) was 60 and the “Plant response rating, Scentless chamo” value (scentless chamomile; Rate 125 g/ha, 0 to 100 scale) was 0. The “Plant response rating, Scentless chamo” value (scentless chamomile; [3]) was 0, the “Plant response rating, Scentless chamo” value (scentless chamomile; [4]) was 0 and the “Plant response rating, Sunflower” value (sunflower; Rate 125 g/ha, 0 to 100 scale) was 10. For the same compound, the “Plant response rating, Sunflower” value (sunflower; [3]) was 10, the “Plant response rating, Sunflower” value (sunflower; [4]) was 15 and the “Plant response rating, Annual bluegras” value (annual bluegrass [2]; [5]) was 50. The “Plant response rating, Annual bluegras” value (annual bluegrass [2]; Rate 250 g/ha, 0 to 100 scale) was 50, the “Plant response rating, Annual bluegras” value (annual bluegrass [2]; [6]) was 60 and the “Plant response rating, Chickweed” value (chickweed; [5]) was 15. The “Plant response rating, Chickweed” value (chickweed; Rate 250 g/ha, 0 to 100 scale) was 50, the “Plant response rating, Chickweed” value (chickweed; [6]) was 100 and the “Plant response rating, Field violet” value (field violet; [5]) was 0. The “Plant response rating, Field violet” value (field violet; Rate 250 g/ha, 0 to 100 scale) was 0, the “Plant response rating, Field violet” value (field violet; [6]) was 10 and the “Plant response rating, LS canarygrass” value (littleseed canarygrass; [5]) was 50. The “Plant response rating, LS canarygrass” value (littleseed canarygrass; Rate 250 g/ha, 0 to 100 scale) was 60 and the “Plant response rating, LS canarygrass” value (littleseed canarygrass; [6]) was 80.

`CCn1c(=O)on(C(=O)N(c2ccccc2)C(C)C)c1=O` [Compound 117] was tested, and the “Plant response rating Arrowleaf sida” value (arrowleaf sida; Rate 140 g/ha) was 0, the “Plant response rating Arrowleaf sida” value (arrowleaf sida; Rate 280 g/ha) was 0 and the “Plant response rating Arrowleaf sida” value (arrowleaf sida; Rate 560 g/ha) was 0. For the same compound, the “Plant response rating Arrowleaf sida” value (arrowleaf sida; Rate 1120 g/ha) was 50, the “Plant response rating Fall panicum” value (fall panicum; Rate 140 g/ha) was 0 and the “Plant response rating Fall panicum” value (fall panicum; Rate 560 g/ha) was 40. The “Plant response rating Fall panicum” value (fall panicum; Rate 1120 g/ha) was 80, the “Plant response rating Johnsongrass” value (johnsongrass; Rate 140 g/ha) was 10 and the “Plant response rating Johnsongrass” value (johnsongrass; Rate 280 g/ha) was 35. For the same compound, the “Plant response rating Johnsongrass” value (johnsongrass; Rate 560 g/ha) was 40, the “Plant response rating Johnsongrass” value (johnsongrass; Rate 1120 g/ha) was 85 and the “Plant response rating, Redroot pigweed” value (redroot pigweed; Rate 140 g/ha) was 0. The “Plant response rating, Redroot pigweed” value (redroot pigweed; Rate 280 g/ha) was 0, the “Plant response rating, Redroot pigweed” value (redroot pigweed; Rate 560 g/ha) was 0 and the “Plant response rating, Redroot pigweed” value (redroot pigweed; Rate 1120 g/ha) was 30.

For `CC(C)N(C(=O)n1oc(=O)n(C(C)C)c1=O)c1ccc(F)cc1` [Compound 131], the “Plant response rating Arrowleaf sida” value (arrowleaf sida; Rate 280 g/ha) was 10, the “Plant response rating Arrowleaf sida” value (arrowleaf sida; Rate 560 g/ha) was 30 and the “Plant response rating Arrowleaf sida” value (arrowleaf sida; Rate 1120 g/ha) was 60. For the same compound, the “Plant response rating Fall panicum” value (fall panicum; Rate 140 g/ha) was 0, the “Plant response rating Fall panicum” value (fall panicum; Rate 280 g/ha) was 40 and the “Plant response rating Fall panicum” value (fall panicum; Rate 560 g/ha) was 90. For the same compound, the “Plant response rating Fall panicum” value (fall panicum; Rate 1120 g/ha) was 90, the “Plant response rating Johnsongrass” value (johnsongrass; Rate 140 g/ha) was 15 and the “Plant response rating Johnsongrass” value (johnsongrass; Rate 280 g/ha) was 40. For the same compound, the “Plant response rating Johnsongrass” value (johnsongrass; Rate 560 g/ha) was 60, the “Plant response rating Johnsongrass” value (johnsongrass; Rate 1120 g/ha) was 70 and the “Plant response rating, Redroot pigweed” value (redroot pigweed; Rate 140 g/ha) was 10. The “Plant response rating, Redroot pigweed” value (redroot pigweed; Rate 280 g/ha) was 10, the “Plant response rating, Redroot pigweed” value (redroot pigweed; Rate 560 g/ha) was 20 and the “Plant response rating, Redroot pigweed” value (redroot pigweed; Rate 1120 g/ha) was 30. For the same compound, the “Plant response rating, Sourgrass” value (sourgrass; Rate 16 g/ha) was 90, the “Plant response rating, Annual bluegras” value (annual bluegrass [1]; Rate 62 g/ha, 0 to 100 scale) was 55 and the “Plant response rating, Annual bluegras” value (annual bluegrass [1]; Rate 125 g/ha, 0 to 100 scale) was 40. The “Plant response rating, Annual bluegras” value (annual bluegrass [1]; [4]) was 70, the “Annual bluegras plant response rating” value (annual bluegrass [1]; [7]) was 40 and the “Plant response rating, Scentless chamo” value (scentless chamomile; Rate 62 g/ha, 0 to 100 scale) was 55. For the same compound, the “Plant response rating, Scentless chamo” value (scentless chamomile; Rate 125 g/ha, 0 to 100 scale) was 0, the “Plant response rating, Scentless chamo” value (scentless chamomile; [4]) was 50 and the “Scentless chamo plant response rating” value (scentless chamomile; [7]) was 20. For the same compound, the “Plant response rating, Sunflower” value (sunflower; Rate 62 g/ha, 0 to 100 scale) was 10, the “Plant response rating, Sunflower” value (sunflower; Rate 125 g/ha, 0 to 100 scale) was 0 and the “Plant response rating, Sunflower” value (sunflower; [4]) was 0. For the same compound, the “Sunflower plant response rating” value (sunflower; [7]) was 0, the “Plant response rating, Annual bluegras” value (annual bluegrass [2]; [5]) was 70 and the “Annual bluegras plant response rating (0 to 100 scale)” value (annual bluegrass [2]; Rate 250 g/ha) was 80. The “Plant response rating, Annual bluegras” value (annual bluegrass [2]; [6]) was 100, the “Plant response rating, Chickweed” value (chickweed; [5]) was 100 and the “Chickweed plant response rating (0 to 100 scale)” value (chickweed; Rate 250 g/ha) was 100. For the same compound, the “Plant response rating, Chickweed” value (chickweed; [6]) was 100, the “Plant response rating, Field violet” value (field violet; [5]) was 20 and the “Field violet plant response rating (0 to 100 scale)” value (field violet; Rate 250 g/ha) was 20. For the same compound, the “Plant response rating, Field violet” value (field violet; [6]) was 40, the “Plant response rating, LS canarygrass” value (littleseed canarygrass; [5]) was 70 and the “LS canarygrass plant response rating (0 to 100 scale)” value (littleseed canarygrass; Rate 250 g/ha) was 70. For the same compound, the “Plant response rating, LS canarygrass” value (littleseed canarygrass; [6]) was 100.

`CC(C)N(C(=O)n1oc(=O)n(N(C)C)c1=O)c1ccccc1` [Compound 225] was tested, and the “Plant response rating, Velvetleaf” value (velvetleaf; Postemergence, Rate 1000 g/ha) was 3 and the “Plant response rating, Velvetleaf” value (velvetleaf; Pre-emergence, Rate 2000 g/ha) was 7.
